Results as given in US3933859A, “Dihydrocoumarin derivatives” (Hoffmann-La Roche, Inc., priority 1970, dated 1976).
Where a name gives a salt, the structure may show the parent alone.

How the values were obtained:
noradrenaline = noradrenaline content lowering after oral administration to rats; type: in vivo, rat; details: five separate oral doses each 300 μmol/kg over 48 hours
Experimental: (§1) The novel compounds of formulae VII and VIII and their salts are useful for lowering the blood-pressure and for chemical sympathectomy. Thus, for example, after orally administering five separate doses each comprising 300 μmol/kg of L-6,7-diacetoxy-3-amino-hydrocoumarin hydrochloride to rats over a period of 48 hours, the noradrenaline content is lowered in the heart to 28% and in the brain to 85% of the controls. The LD50 of this hydrochloride amounts to 30-60 mg/kg i.v., 250-500 mg/kg s.c. and 1,000-2,000 mg/kg p.o.

[1] = LD50 of the hydrochloride; details: in vivo
Experimental: as §1

For `CC(=O)Oc1cc2c(cc1OC(C)=O)OC(=O)[C@@H](N)C2` [L-6,7-diacetoxy-3-aminohydrocoumarin hydrochloride], the “noradrenaline content in the brain, lowered to % of the controls” value (noradrenaline; brain) was 85%, the “noradrenaline content in the heart, lowered to % of the controls” value (noradrenaline; heart) was 28% and the LD50 ([1]; iv) was 30 to 60 mg/kg. It also gave an LD50 ([1]; po) of 1000 to 2000 mg/kg and an LD50 ([1]; sc) of 250 to 500 mg/kg.
